Measured values as given in ChEMBL document CHEMBL5131570, “Discovery of Potent Small-Molecule USP8 Inhibitors for the Treatment of Breast Cancer through Regulating ERα Expression” (J Med Chem, 2022).
Active and inactive are the calls of the source. The calls are words filed in the database; no cut-off is given here.

Legend:
[1] = target: T1, Ubiquitin carboxyl-terminal hydrolase 8 (Homo sapiens) (UniProt P40818); experiment: Binding affinity to N-terminal His6-tagged USP8 catalytic domain (734 to 1110 residues) (unknown origin) expressed in Escherichia coli BL21 (DE3) cells using K63-linked di-ubiquitin as substrate by di-ubiquitin cleavage assay
T1 sequence (whole entry): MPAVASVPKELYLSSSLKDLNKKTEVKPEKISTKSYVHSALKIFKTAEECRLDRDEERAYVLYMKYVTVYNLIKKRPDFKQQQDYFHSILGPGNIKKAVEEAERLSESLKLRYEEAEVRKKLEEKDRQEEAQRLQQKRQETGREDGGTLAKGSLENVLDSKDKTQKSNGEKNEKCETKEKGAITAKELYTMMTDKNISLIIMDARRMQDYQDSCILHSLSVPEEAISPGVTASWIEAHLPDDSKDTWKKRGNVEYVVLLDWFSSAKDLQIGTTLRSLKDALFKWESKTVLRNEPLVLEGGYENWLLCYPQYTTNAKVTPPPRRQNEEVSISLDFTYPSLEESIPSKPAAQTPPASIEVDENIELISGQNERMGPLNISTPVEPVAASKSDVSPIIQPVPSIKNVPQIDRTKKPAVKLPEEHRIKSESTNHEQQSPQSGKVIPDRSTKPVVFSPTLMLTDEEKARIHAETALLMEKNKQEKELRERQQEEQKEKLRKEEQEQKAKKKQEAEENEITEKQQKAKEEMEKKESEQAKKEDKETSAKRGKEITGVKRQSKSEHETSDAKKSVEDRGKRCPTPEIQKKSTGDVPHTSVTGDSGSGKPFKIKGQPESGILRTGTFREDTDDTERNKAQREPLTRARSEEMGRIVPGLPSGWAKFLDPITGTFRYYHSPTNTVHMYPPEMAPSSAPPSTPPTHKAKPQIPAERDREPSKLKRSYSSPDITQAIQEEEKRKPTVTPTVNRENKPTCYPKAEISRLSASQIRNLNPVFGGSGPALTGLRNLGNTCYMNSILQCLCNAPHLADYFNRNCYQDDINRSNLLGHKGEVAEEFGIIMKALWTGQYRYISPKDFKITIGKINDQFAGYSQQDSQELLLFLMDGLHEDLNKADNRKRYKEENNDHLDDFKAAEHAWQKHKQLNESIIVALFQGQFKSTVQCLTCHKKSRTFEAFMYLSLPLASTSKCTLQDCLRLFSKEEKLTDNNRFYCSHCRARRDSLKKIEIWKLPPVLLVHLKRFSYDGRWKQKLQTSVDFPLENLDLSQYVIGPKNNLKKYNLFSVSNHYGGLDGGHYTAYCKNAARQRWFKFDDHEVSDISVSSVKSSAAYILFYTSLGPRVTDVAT

[2] = Toxicity in BALB/c mouse xenografted with human MCF7 cells assessed as effect on heart at 5 to 20 mg/kg, […] every other day measured after 14 days by hematoxylin and eosin staining based analysis; type: organism-based; details: in vivo, 336 h, dose 5-20 mg/kg, time 14 day
[3] = tested on: MCF7; experiment: Antitumor activity against human MCF7 cells xenografted in BALB/c mouse assessed as inhibition of tumor growth at 20 mg/kg, ip administered via gavage every other day for 14 days; type: functional, organism-based; details: time 14.0 day
[4] = tested on: MCF7; experiment: Antitumor activity against human MCF7 cells xenografted in BALB/c mouse assessed as reduction of ErbB3 phosphorylation in tumor tissue at 5 to 20 mg/kg, ip administered via gavage every other day for 14 days by immunohistochemistry analysis; type: functional, organism-based; details: dose 5-20 mg/kg, time 14.0 day
[5] = Toxicity in BALB/c mouse xenografted with human MCF7 cells assessed as effect on kidney at 5 to 20 mg/kg, […] every other day measured after 14 days by hematoxylin and eosin staining based analysis; type: organism-based; details: in vivo, 336 h, dose 5-20 mg/kg, time 14 day
[6] = target: T2, Ubiquitin carboxyl-terminal hydrolase 2 (Homo sapiens, UniProt O75604); experiment: Inhibition of USP2 (267 to 599 residues) (unknown origin) catalytic domain expressed in Escherichia coli BL21 (DE3) cells using ubiquitin-rhodamine -110 as substrate incubated for 30 mins followed by substrate addition measured after 30 mins by ubiquitin-rhodamine-110 based fluorometric assay
T2 sequence (O75604 whole entry): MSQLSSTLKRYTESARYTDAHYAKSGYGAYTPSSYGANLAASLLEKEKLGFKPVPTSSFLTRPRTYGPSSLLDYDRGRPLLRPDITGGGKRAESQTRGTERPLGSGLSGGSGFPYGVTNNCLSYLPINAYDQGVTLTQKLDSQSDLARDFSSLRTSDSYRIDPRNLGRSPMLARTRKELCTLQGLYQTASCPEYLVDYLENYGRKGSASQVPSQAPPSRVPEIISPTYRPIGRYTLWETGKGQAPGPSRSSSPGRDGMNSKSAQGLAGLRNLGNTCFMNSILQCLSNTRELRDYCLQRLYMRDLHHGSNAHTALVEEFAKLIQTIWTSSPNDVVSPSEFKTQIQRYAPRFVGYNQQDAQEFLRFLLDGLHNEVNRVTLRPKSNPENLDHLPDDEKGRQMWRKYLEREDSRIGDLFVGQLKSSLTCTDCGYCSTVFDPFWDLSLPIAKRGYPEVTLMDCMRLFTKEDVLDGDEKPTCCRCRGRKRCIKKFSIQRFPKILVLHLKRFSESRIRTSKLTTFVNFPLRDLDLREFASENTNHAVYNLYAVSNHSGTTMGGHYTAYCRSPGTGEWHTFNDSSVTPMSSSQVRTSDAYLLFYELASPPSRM

[7] = Toxicity in BALB/c mouse xenografted with human MCF7 cells assessed as change in body weight at 5 to 20 mg/kg, […] every other day for 14 days; type: organism-based; details: in vivo, 336 h, dose 5-20 mg/kg, time 14 day
[8] = tested on: MCF7; experiment: Induction of apoptosis in human MCF7 cells assessed as reduction in ErbB2 expression level up to 5 uM incubated for 24 hrs by Western blotting analysis; type: functional, cell-based
[9] = target: T1, Ubiquitin carboxyl-terminal hydrolase 8 (Homo sapiens); experiment: Inhibition of N-terminal His6-tagged USP8 catalytic domain (734 to 1110 residues) in HEK293T intact cells up to 100 uM in presence of HA-Ub-VS probe by USP8 antibody based Western blotting assay; type: cell-based
[10] = tested on: MCF7; experiment: Induction of apoptosis in human MCF7 cells assessed as increase in apoptotic cells at 2 uM incubated for 12 hrs by AnnexinV-FITC/propidium iodide staining based flow cytometry relative to control (reference value: 2.00 %); type: functional
[11] = target: T1, Ubiquitin carboxyl-terminal hydrolase 8 (Homo sapiens); experiment: Inhibition of N-terminal His6-tagged USP8 catalytic domain (734 to 1110 residues) in HEK293T cell lysates up to 100 uM in presence of HA-Ub-VS probe by HA antibody based Western blotting assay; type: subcellular
[12] = tested on: MCF7; experiment: Induction of apoptosis in human MCF7 cells assessed as increase in apoptotic cells at 1 uM incubated for 12 hrs by AnnexinV-FITC/propidium iodide staining based flow cytometry relative to control (reference value: 2.00 %); type: functional
[13] = species on record: Homo sapiens; experiment: Selectivity ratio of IC50 for USP2 (unknown origin) catalytic domain to IC50 for USP8 (unknown origin) catalytic domain
[14] = tested on: MCF7; experiment: Downregulation of progesterone receptor mRNA level in human MCF7 cells up to 5 uM measured after 24 hrs by RT-qPCR analysis; type: functional, cell-based

Activity [1]: Active
IC50 [6]: 50 µM
inhibition [9]: Active
inhibition [11]: Active
Ratio IC50 [13]: 49
SMILES: Cc1n[nH]c(C)c1Oc1c(O)cc(O)c2c(=O)cc(-c3ccc(N4CCN(c5ccccn5)CC4)cc3)oc12
Activity [2]: Non-Toxic
Activity [3]: Active
Activity [4]: Active
Activity [5]: Non-Toxic
Activity [7]: Non-Toxic
Activity [8]: Active
Activity [10]: 12.57%
Activity [12]: 3.45%
Activity [14]: Active
